Experimental data reported in patent US9751885B2, “Cyclopropanamine compound and use thereof” (Takeda Pharmaceutical Company Limited, priority 2012, dated 2017).
Structures can show the parent of a compound that is named as a salt.

Assays:
[1] = molecular target: human LSD1(172-833) (Homo sapiens (Human), UniProt O60341); test: Measurement of LSD1 inhibitory activity (time-resolved fluorescence, biotin-histone H3 mono methylated K4 peptide); assay type: biochemical
Protocol: When the turbidity reached 500 Klett units, the culture temperature was changed to 16° C., IPTG (Isopropyl β-D-1-thiogalactopyranoside) having a final concentration of 0.5 mM was added to induce expression, and the cells were cultured further for 14 hr. The culture medium was centrifuged at 6,000 g for 15 min, and Escherichia coil pellets were recovered.
Using Branson ultrasonic disintegrator, the suspension was disrupted by ultrasonication for 3 min, and centrifuged at 33,000 g for 60 min, and the supernatant was recovered. […] It was concentrated to 10 mL with AmiconUltra (NWCO 30K) (Millipore Japan), and purified with HiLoad 26/60 Superdex 200 pg column (GE Healthcare) equilibrated with Buffer A to give hLSD1 purified product (8.4 mg). The protein concentration of hLSD1 was measured by BCA Protein Assay Kit (Thermo Fisher Scientific K.K.) using bovine serum albumin as the standard.
(5) Measurement of LSD1 Inhibitory Activity
After reaction at room temperature for 5 min, 1 mM 2-PCPA solution was added 5 μL to terminate the reaction. A detection solution ([…] potassium fluoride, 0.1% BSA) containing europium-labeled anti-histone H3 antibody (Wako Pure Chemical Industries, Ltd.) and Streptavidin-XL665 (Cisbio) was further added by 5 μL, and the mixture was left standing for 60 min.

[2] = molecular target: MAO-B enzyme (Homo sapiens (Human), UniProt P27338); test: Measurement of MAO-B inhibitory activity (MAO-Glo Assay); conditions: read-out: MAO-B IC50 value;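 note: luminescence read-out, compound preincubated 10 min with enzyme then reacted 60 min at room temperature, inhibition relative to enzyme reaction without compound, blank lacking enzyme and compound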
[3] = molecular target: MAO-A enzyme (Homo sapiens (Human), UniProt P21397); test: Measurement of MAO-A inhibitory activity (MAO-Glo Assay); assay type: biochemical
Sequence of MAO-A enzyme (P21397 whole entry): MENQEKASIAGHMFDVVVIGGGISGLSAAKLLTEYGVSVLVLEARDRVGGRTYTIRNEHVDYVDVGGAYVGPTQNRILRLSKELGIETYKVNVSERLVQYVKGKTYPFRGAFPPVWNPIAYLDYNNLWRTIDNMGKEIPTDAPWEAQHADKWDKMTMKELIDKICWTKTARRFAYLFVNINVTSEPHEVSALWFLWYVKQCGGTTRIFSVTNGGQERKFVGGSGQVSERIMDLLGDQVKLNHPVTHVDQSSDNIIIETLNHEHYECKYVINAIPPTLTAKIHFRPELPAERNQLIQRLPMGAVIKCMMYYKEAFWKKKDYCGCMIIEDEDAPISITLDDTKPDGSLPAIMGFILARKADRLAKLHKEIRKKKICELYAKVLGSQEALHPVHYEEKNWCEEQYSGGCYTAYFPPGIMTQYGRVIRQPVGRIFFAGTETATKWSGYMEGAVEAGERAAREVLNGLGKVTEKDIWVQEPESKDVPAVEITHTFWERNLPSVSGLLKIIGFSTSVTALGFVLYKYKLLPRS
Protocol: The MAO-A inhibitory activity evaluation described below followed the protocol of MAO-Glo (registered trademark) Assay of Promega KK.
A test compound dissolved in 4% DMSO was added by 12.5 μL to 25 μL reaction solution (100 mM HEPES (pH 7.5), 5% glycerol) containing 400 ng of MAO-A enzyme (Sigma-Aldrich Co. LLC.), and the mixture was reacted at room temperature for 10 min. […] After reaction at room temperature for 60 min, Luciferine detection reagent (Promega KK) (50 μL) was added to terminate the reaction. After reaction at room temperature for min with stirring, the luminescence was measured by Envision (PerkinElmer). The MAO-A inhibitory rate (%) of the test compound was calculated by the following formula. inhibitory rate(%)=(1−(test compound count−blank)÷(control−blank))×100
The count of the MAO-A enzyme reaction mixture under compound non-addition conditions is indicated as control, and the count under compound non-addition and MAO-A enzyme non-addition conditions is indicated as blank.

Sequence of MAO-B enzyme (P27338 whole entry): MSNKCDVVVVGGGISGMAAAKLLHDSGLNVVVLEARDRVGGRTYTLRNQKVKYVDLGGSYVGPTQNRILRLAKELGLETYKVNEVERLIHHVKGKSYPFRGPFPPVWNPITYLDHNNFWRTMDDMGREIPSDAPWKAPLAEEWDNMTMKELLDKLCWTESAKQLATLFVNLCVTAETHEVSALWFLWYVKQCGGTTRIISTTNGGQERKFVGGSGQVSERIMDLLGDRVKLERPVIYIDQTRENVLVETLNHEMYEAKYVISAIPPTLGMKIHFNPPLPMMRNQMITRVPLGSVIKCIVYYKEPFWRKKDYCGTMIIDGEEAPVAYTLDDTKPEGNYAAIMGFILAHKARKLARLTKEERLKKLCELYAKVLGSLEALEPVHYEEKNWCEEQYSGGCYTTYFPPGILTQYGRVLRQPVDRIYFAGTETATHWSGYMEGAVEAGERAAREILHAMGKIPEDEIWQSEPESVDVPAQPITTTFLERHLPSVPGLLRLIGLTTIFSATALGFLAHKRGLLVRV

SMILES	IC50 [1]	IC50 [2]	IC50 [3]
O=C(NCc1ccncc1)c1ccc([C@@H]2C[C@H]2NCC2CC2)cc1 (relative stereo) [Example 17, 4-(trans-2-((cyclopropylmethyl)amino)cyclopropyl)-N-(pyridin-4-ylmethyl)benzamide bis(trifluoroacetate)]	< 0.1 µM	> 10 µM	> 10 µM
O=C(NCc1cccnc1)c1ccc([C@@H]2C[C@H]2NCC2CC2)cc1 (relative stereo) [Example 18, 4-(trans-2-((cyclopropylmethyl)amino)cyclopropyl)-N-(pyridin-3-ylmethyl)benzamide bis(trifluoroacetate)]	< 0.1 µM	> 10 µM	> 10 µM
O=C(NCCc1ccccn1)c1ccc([C@@H]2C[C@H]2NCC2CC2)cc1 (relative stereo) [Example 19, 4-(trans-2-((cyclopropylmethyl)amino)cyclopropyl)-N-(2-(pyridin-2-yl)ethyl)benzamide bis(trifluoroacetate)]	< 0.1 µM	> 10 µM	> 10 µM
O=C(c1ccc([C@@H]2C[C@H]2NCC2CC2)cc1)N1Cc2cccnc2C1 (relative stereo) [Example 20, (4-(trans-2-((cyclopropylmethyl)amino)cyclopropyl)phenyl)(5,7-dihydro-6H-pyrrolo[3,4-b]pyridin-6-yl)methanone bis(trifluoroacetate)]	< 0.1 µM	> 10 µM	> 10 µM
O=C(NCc1cccc(Oc2ccccc2)c1)c1ccc([C@@H]2C[C@H]2NCC2CC2)cc1 (relative stereo) [Example 21, 4-(trans-2-((cyclopropylmethyl)amino)cyclopropyl)-N-(3-phenoxybenzyl)benzamide trifluoroacetate]	< 0.1 µM	> 10 µM	1.8 µM
N#CCN(Cc1ccccc1)C(=O)c1ccc([C@@H]2C[C@H]2NCC2CC2)cc1 (relative stereo) [Example 22, N-benzyl-N-(cyanomethyl)-4-(trans-2-((cyclopropylmethyl)amino)cyclopropyl)benzamide trifluoroacetate]	< 0.1 µM	> 10 µM	> 10 µM
CN1CCN(c2ccc(NC(=O)c3ccc([C@@H]4C[C@H]4NCC4CC4)cc3)cc2)CC1 (relative stereo) [Example 23, 4-(trans-2-((cyclopropylmethyl)amino)cyclopropyl)-N-(4-(4-methylpiperazin-1-yl)phenyl)benzamide tris(trifluoroacetate)]	< 0.1 µM	> 10 µM	> 10 µM
N#Cc1cccc(CNC(=O)c2ccc([C@@H]3C[C@H]3NCC3CC3)cc2)c1 (relative stereo) [Example 25, N-(3-cyanobenzyl)-4-(trans-2-((cyclopropylmethyl)amino)cyclopropyl)benzamide trifluoroacetate]	< 0.1 µM	> 10 µM	> 10 µM
O=C(NCc1ncccc1C(F)(F)F)c1ccc([C@@H]2C[C@H]2NCC2CC2)cc1 (relative stereo) [Example 26, 4-(trans-2-((cyclopropylmethyl)amino)cyclopropyl)-N-((3-(trifluoromethyl)pyridin-2-yl)methyl)benzamide bis(trifluoroacetate)]	< 0.1 µM	> 10 µM	> 10 µM
O=C(NCc1ccc(N2CCCC2=O)cc1)c1ccc([C@@H]2C[C@H]2NCC2CC2)cc1 (relative stereo) [Example 27, 4-(trans-2-((cyclopropylmethyl)amino)cyclopropyl)-N-(4-(2-oxopyrrolidin-1-yl)benzyl)benzamide trifluoroacetate]	< 0.1 µM	> 10 µM	> 10 µM
O=C(NCc1ccc(N2CCOCC2)cc1)c1ccc([C@@H]2C[C@H]2NCC2CC2)cc1 (relative stereo) [Example 28, 4-(trans-2-((cyclopropylmethyl)amino)cyclopropyl)-N-(4-(morpholin-4-yl)benzyl)benzamide bis(trifluoroacetate)]	< 0.1 µM	> 10 µM	> 10 µM
O=C(NCc1cccc(Oc2cnccn2)c1)c1ccc([C@@H]2C[C@H]2NCC2CC2)cc1 (relative stereo) [Example 29, 4-(trans-2-((cyclopropylmethyl)amino)cyclopropyl)-N-(3-(pyrazin-2-yloxy)benzyl)benzamide bis(trifluoroacetate)]	< 0.1 µM	> 10 µM	7.3 µM
O=C(NCc1cccc2c1OCCO2)c1ccc([C@@H]2C[C@H]2NCC2CC2)cc1 (relative stereo) [Example 30, 4-(trans-2-((cyclopropylmethyl)amino)cyclopropyl)-N-(2,3-dihydro-1,4-benzodioxin-5-ylmethyl)benzamide trifluoroacetate]	< 0.1 µM	> 10 µM	> 10 µM
CC(C)(C)c1ccc(CN[C@@H]2C[C@H]2c2ccc(C(=O)NCc3ccccc3)cc2)cc1 (relative stereo) [Example 31, N-benzyl-4-(trans-2-((4-tert-butylbenzyl)amino)cyclopropyl)benzamide trifluoroacetate]	< 0.1 µM	> 10 µM	4 µM
COc1ccccc1CN[C@@H]1C[C@H]1c1ccc(C(=O)NCc2ccccc2)cc1 (relative stereo) [Example 32, N-benzyl-4-(trans-2-((2-methoxybenzyl)amino)cyclopropyl)benzamide trifluoroacetate]	< 0.1 µM	> 10 µM	> 10 µM
Cc1ccccc1CN[C@@H]1C[C@H]1c1ccc(C(=O)NCc2ccccc2)cc1 (relative stereo) [Example 33, N-benzyl-4-(trans-2-((2-methylbenzyl)amino)cyclopropyl)benzamide trifluoroacetate]	< 0.1 µM	> 10 µM	> 10 µM
Cc1ccc(CN[C@@H]2C[C@H]2c2ccc(C(=O)NCc3ccccc3)cc2)cc1 (relative stereo) [Example 34, N-benzyl-4-(trans-2-((4-methylbenzyl)amino)cyclopropyl)benzamide trifluoroacetate]	< 0.1 µM	> 10 µM	4.4 µM
COc1ccc(CN[C@@H]2C[C@H]2c2ccc(C(=O)NCc3ccccc3)cc2)cc1 (relative stereo) [Example 35, N-benzyl-4-(trans-2-((4-methoxybenzyl)amino)cyclopropyl)benzamide trifluoroacetate]	< 0.1 µM	> 10 µM	3.1 µM
N#Cc1ccc(CN[C@@H]2C[C@H]2c2ccc(C(=O)NCc3ccccc3)cc2)cc1 (relative stereo) [Example 36, N-benzyl-4-(trans-2-((4-cyanobenzyl)amino)cyclopropyl)benzamide trifluoroacetate]	< 0.1 µM	> 10 µM	4.3 µM
COc1cccc(CN[C@@H]2C[C@H]2c2ccc(C(=O)NCc3ccccc3)cc2)c1 (relative stereo) [Example 37, N-benzyl-4-(trans-2-((3-methoxybenzyl)amino)cyclopropyl)benzamide trifluoroacetate]	< 0.1 µM	> 10 µM	4.5 µM
O=C(NCc1ccccc1)c1ccc([C@@H]2C[C@H]2NCc2ccc(C(F)(F)F)cc2)cc1 (relative stereo) [Example 38, N-benzyl-4-(trans-2-((4-(trifluoromethyl)benzyl)amino)cyclopropyl)benzamide trifluoroacetate]	< 0.1 µM	> 10 µM	2.2 µM
O=C(NCc1ccccc1)c1ccc([C@@H]2C[C@H]2NCc2ccccc2F)cc1 (relative stereo) [Example 39, N-benzyl-4-(trans-2-((2-fluorobenzyl)amino)cyclopropyl)benzamide trifluoroacetate]	< 0.1 µM	> 10 µM	6.6 µM
COc1ccc(F)c(CN[C@@H]2C[C@H]2c2ccc(C(=O)NCc3ccccc3)cc2)c1 (relative stereo) [Example 40, N-benzyl-4-(trans-2-((2-fluoro-5-methoxybenzyl)amino)cyclopropyl)benzamide trifluoroacetate]	< 0.1 µM	> 10 µM	> 10 µM
COc1cc(Cl)ccc1CN[C@@H]1C[C@H]1c1ccc(C(=O)NCc2ccccc2)cc1 (relative stereo) [Example 41, N-benzyl-4-(trans-2-((4-chloro-2-methoxybenzyl)amino)cyclopropyl)benzamide trifluoroacetate]	< 0.1 µM	> 10 µM	6.6 µM
CN(C)c1ccccc1CN[C@@H]1C[C@H]1c1ccc(C(=O)NCc2ccccc2)cc1 (relative stereo) [Example 42, N-benzyl-4-(trans-2-((2-(dimethylamino)benzyl)amino)cyclopropyl)benzamide bis(trifluoroacetate)]	< 0.1 µM	> 10 µM	3.4 µM
N#Cc1cccc(CN[C@@H]2C[C@H]2c2ccc(C(=O)NCc3ccccc3)cc2)c1 (relative stereo) [Example 43, N-benzyl-4-(trans-2-((3-cyanobenzyl)amino)cyclopropyl)benzamide trifluoroacetate]	< 0.1 µM	> 10 µM	1.5 µM
